The subject of one assay is e-PBMCs. Nature of the assay: Ex vivo cytokine secretion assay, exhausted PBMCs from a melanoma patient. The assay is classed as cell-based, human. The settings on record: e-PBMC, 6 h, LEGENDplex. As to the method:
Then, an ex vivo immune cell culture system using h-PBMCs and exhausted PBMCs from a melanoma patient (e-PBMCs) was used to determine the efficacy of selected ADAPTin peptides on T-effector cells (Fig. 6).[91,92] T-cell exhaustion typically leads to a reduction in cytokine release, cytotoxic activity, as well as slower T-cell proliferation. […] Cytokines concentrations measured at 72 h post-treatment were in most cases over the detection limit range further indicating the effectiveness of our compounds over time.
Non-covalent ADAPTin2c/2p were used as negative control. (A) Levels of inflammatory cytokines measured by flow-cytometry (FACS) after 6 h incubation with electrophilic ADAPTins. Error bars indicate the mean ± SD, (n = 3). (B) Rescue of exhausted PBMCs from a melanoma patient. Levels of inflammatory cytokines and granule-associated proteins released (6 h) measured by FACS (healthy and untreated exhausted PBMCs: h-/e-PBMCs used as positive and negative controls respectively). Error bars indicate the avg ± SD, (n = 2).
Ex Vivo Cytokine Secretion Assay.
Normal PBMCs (from healthy donor) and exhausted PBMCs isolated from the blood sample of a melanoma patient were activated for 48 h before using anti-CD2/28 monoclonal antibodies with IL-2 (2 ng/mL) as mentioned above. After 48 h, PBMCs were washed and incubated with a series of ADAPTins for 6 h. After treatment, media supernatant was collected for cytokine release measurements using the LEGENDplex™ human CD8/NK (13-plex) panel (BioLegend, cat no. 740267). Briefly, samples were mixed with assay buffer and human (13-plex) mixed-beads and plated on the 96-well filter plate. Samples were incubated for 2 h at room temperature, washed, and resuspended beads with detection antibodies according to manufacturer's protocol. Samples were transferred to a 96-well plate to read on a flow cytometer. The flow cytometer and data acquisition software setting were used according to the manufacturer's instructions. Flow analysis was obtained using a CytoFLEX-S flow cytometer equipped with 3 lasers (488 nm blue, 405 nm violet, and 638 nm from Beckman).
Table S9. Raw data of cytokine secretion assay (n=2).
Cytokine assay IL-2 TNF-α IFN-γ Perforin […]

The target in another assay is T1, PD1:PDL1 interaction (Homo sapiens, UniProt Q15116).
T1 construct: purchased BPS Bioscience 72005
The experiment in a line: PD1/PDL1 immunoblocking ELISA (BPS Bioscience kit cat # 72005). Format: binding. On the technique in general: An ELISA detects its analyte on a solid surface through an enzyme-linked reagent.

The record followed here is publication PMC11562385 (RSC Chemical Biology, 2024).

The term pEC50 denotes the EC50 on a negative log10 scale, so that one unit is a factor of ten.

pEC50: −log10 of the molar value. Peptide text beside a SMILES is read from it.

T1 sequence (Q15116 25-167 limits assumed): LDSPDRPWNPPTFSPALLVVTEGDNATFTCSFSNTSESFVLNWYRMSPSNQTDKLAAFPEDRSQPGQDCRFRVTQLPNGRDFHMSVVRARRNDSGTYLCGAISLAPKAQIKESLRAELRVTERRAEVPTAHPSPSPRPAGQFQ

Turning to `CSCC[C@H](NC(=O)[C@H](CC(=O)O)NC(=O)[C@H](Cc1ccccc1)NC(=O)[C@H](CCCNC(=N)N)NC(=O)[C@H](Cc1ccc(O)cc1)NC(=O)[C@H](CC(=O)O)NC(=O)[C@H](CCCNC(=N)N)NC(=O)[C@H](CCCNC(=N)N)NC(=O)[C@H](C)NC(=O)[C@@H](NC(=O)[C@H](Cc1c[nH]c2ccccc12)NC(=O)[C@@H](N)CCCNC(=N)N)C(C)C)C(=O)NCC(=O)N[C@@H](Cc1ccccc1)C(=O)N[C@@H](CC(=O)O)C(=O)N[C@@H](Cc1ccc(O)cc1)C(=O)N[C@@H](Cc1c[nH]c2ccccc12)C(=O)N[C@H](C(=O)N[C@@H](Cc1c[nH]c2ccccc12)C(=O)N[C@@H](CCC(=O)O)C(=O)O)C(C)C` [2c] (H-RWVARRDYRFDMGFDYWVWE-OH), in the assay on e-PBMCs (replicate 1), the IFN-γ was 4131.52 pg/mL, the IL-2 was determined as 0.44 pg/mL, the Perforin was 217.39 pg/mL and the TNF-α worked out at 483.47 pg/mL. In the assay with e-PBMCs (replicate 2), this compound returned an IFN-γ of 7535.05 pg/mL, an IL-2 of 266.63 pg/mL, a Perforin of 381.31 pg/mL and a TNF-α of 1150.47 pg/mL. Besides, the negative logarithm of the EC50 (pEC50) on PD1:PDL1 interaction (ELISA, mean of three independent experiments, read-out: EC50 Value) was 6.60. The “LE (ligand efficiency)” value at PD1:PDL1 interaction (LE = -RTln(EC50)/HA, HA = non-hydrogen atoms omitting the strap (RWV•••VWE)) was 0.07.
